Data from US9931347B2, “Pharmaceutical compound” (IOmet Pharma Ltd., priority 2013, dated 2018).

Key:
[1] = biological target: T1, TDO (A172 human glioblastoma cells) (Homo sapiens, UniProt P48775); experiment: A172 Kynurenine cell based assay; conditions: 500 μM L-tryptophan, 48 hours, kynurenine by Erhlich's reagent
T1 construct: This assay utilised cancer cells which expressed either TDO or IDO; endogenous in cells; host or cells: A172 human glioblastoma cells
How it was run: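 Kynurenine released into the supernatant was quantified by absorbance at 490 nm after 5 min with Erhlich's reagent. A172 cells were seeded at 30,000/well and exposed to test compound for 48 hours at 37° C. in phenol red-free RPMI containing 500 μM L-tryptophan, 10% FCS and 2 mM L-glutamine.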

[2] = biological target: T2, IDO (SKOV3 human ovarian adenocarcinoma cells, IFN-γ induced) (Homo sapiens, UniProt P14902); experiment: SKOV3 Kynurenine cell based assay; conditions: IDO induced by 500 ng/ml IFN-γ, 500 μM L-tryptophan, 48 hours
T2 construct: IDO expression was induced in the SKOV3 cells by the addition of 500 ng/ml IFN-γ; endogenous in cells; host or cells: SKOV3 human ovarian adenocarcinoma cells, induced with IFN-γ
T2 sequence (P14902 whole entry): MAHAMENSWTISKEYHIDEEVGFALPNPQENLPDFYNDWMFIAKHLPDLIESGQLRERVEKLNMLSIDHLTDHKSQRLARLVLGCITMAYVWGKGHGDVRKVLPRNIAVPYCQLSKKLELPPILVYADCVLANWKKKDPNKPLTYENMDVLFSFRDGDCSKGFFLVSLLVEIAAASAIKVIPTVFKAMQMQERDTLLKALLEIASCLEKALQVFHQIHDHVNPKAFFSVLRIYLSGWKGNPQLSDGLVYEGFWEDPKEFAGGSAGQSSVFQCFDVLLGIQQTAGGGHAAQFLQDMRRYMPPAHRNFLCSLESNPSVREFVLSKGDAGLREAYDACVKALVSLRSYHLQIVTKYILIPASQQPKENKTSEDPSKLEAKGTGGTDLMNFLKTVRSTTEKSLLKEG
How it was run: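 Kynurenine in the supernatant, detected by Ehrlich's reagent, served as read-out after 48 h at 37° C with or without test compound. SKOV3 cells (40,000/well) were grown in phenol red-free RPMI, 10% FCS, 2 mM L-glutamine, 500 μM L-tryptophan, with 500 ng/ml IFN-γ to induce IDO.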

Recombinant human IDO = Recombinant human IDO (Homo sapiens, UniProt P14902); experiment: hIDO biochemical coupled assay; conditions: 45 μM L-tryptophan, coupled with kynurenine formamidase
Recombinant human IDO, sequence (P14902 whole entry): as above
How it was run: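 Recombinant human IDO incubated in 50 mM KPO4 (pH 7.0), 0.5 mM EGTA, 0.5 mM EDTA, 0.05% Triton X100, 20 mM ascorbate, 10 μM methylene blue, 500 U/ml catalase and 50 μg/ml kynurenine formamidase. N-formylkynurenine converted to kynurenine, quantified by fluorescence after Ehrlich's reagent.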

Recombinant human TDO = Recombinant human TDO (Homo sapiens, UniProt P48775); experiment: hTDO biochemical coupled assay; conditions: 330 μM L-tryptophan, coupled with kynurenine formamidase
Recombinant human TDO, sequence (P48775 whole entry): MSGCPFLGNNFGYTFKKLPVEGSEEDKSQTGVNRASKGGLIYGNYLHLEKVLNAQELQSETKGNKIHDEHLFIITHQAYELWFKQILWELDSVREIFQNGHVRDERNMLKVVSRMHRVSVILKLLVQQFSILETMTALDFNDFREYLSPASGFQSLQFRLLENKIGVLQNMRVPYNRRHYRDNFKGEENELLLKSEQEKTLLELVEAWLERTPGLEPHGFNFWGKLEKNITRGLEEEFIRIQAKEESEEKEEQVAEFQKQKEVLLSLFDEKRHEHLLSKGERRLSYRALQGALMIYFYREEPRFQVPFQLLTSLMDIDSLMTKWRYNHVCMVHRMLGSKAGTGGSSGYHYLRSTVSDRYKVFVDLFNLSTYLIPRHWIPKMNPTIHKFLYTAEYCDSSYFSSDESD
How it was run: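 Recombinant human TDO with 330 μM L-tryptophan in 50 mM KPO4 pH 7.0 containing EGTA, EDTA, Triton X100, ascorbate, methylene blue, catalase and kynurenine formamidase (KynB), 17 min at room temperature. Stopped with Ehrlich's reagent, 5 min, then kynurenine fluorescence read (Ex475, Em530).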

T1 sequence (P48775 whole entry): as above

SMILES | A172 Kynurenine cell based assay pIC50 [1] | SKOV3 Kynurenine cell based assay pIC50 [2] | hIDO biocehmical assay pIC50 (Recombinant human IDO) | hTDO biochemical assay pIC50 (Recombinant human TDO)
COc1ccc2[nH]cc(C3CCN(S(=O)(=O)c4cc(C(F)(F)F)ccc4C(F)(F)F)CC3)c2c1 [Compound 55] | +− (+− = pIC50 <4.00) | ++ (++ = pIC50 5.00-5.99) | +− (+− = pIC50 <4.00) | +− (+− = pIC50 <4.00)
CCc1cc(Br)ccc1S(=O)(=O)N1CCC(c2c[nH]c3ccc(OC)cc23)CC1 [Compound 29] | +− (+− = pIC50 <4.00) | + (+ = pIC50 4.00-4.99) | +− (+− = pIC50 <4.00) | +− (+− = pIC50 <4.00)
CS(=O)(=O)N1CC=C(c2c[nH]c3ccc(F)cc23)CC1 [Compound 90] | ++ (++ = pIC50 5.00-5.99) | + (+ = pIC50 4.00-4.99) | +− (+− = pIC50 <4.00) | ++ (++ = pIC50 5.00-5.99)
CS(=O)(=O)N1CCC(c2c[nH]c3ccccc23)CC1 [Compound 3] | ++ (++ = pIC50 5.00-5.99) | +− (+− = pIC50 <4.00) | +− (+− = pIC50 <4.00) | ++ (++ = pIC50 5.00-5.99)
CC(=O)N1CC=C(c2c[nH]c3cccc(F)c23)CC1 [Compound 77] | + (+ = pIC50 4.00-4.99) | + (+ = pIC50 4.00-4.99) | +− (+− = pIC50 <4.00) | + (+ = pIC50 4.00-4.99)
CS(=O)(=O)N1CCC(c2c[nH]c3cc(F)ccc23)CC1 [Compound 22] | +++ (+++ = pIC50 ≥6.00) | +− (+− = pIC50 <4.00) | +− (+− = pIC50 <4.00) | + (+ = pIC50 4.00-4.99)
CC(C)C(=O)N1CCC(c2c[nH]c3ccccc23)CC1 [Compound 106] | + (+ = pIC50 4.00-4.99) | +− (+− = pIC50 <4.00) | +− (+− = pIC50 <4.00) | +− (+− = pIC50 <4.00)
NS(=O)(=O)N1CC=C(c2c[nH]c3ccccc23)CC1 [Compound 162] | +++ (+++ = pIC50 ≥6.00) | +− (+− = pIC50 <4.00) | +− (+− = pIC50 <4.00) | +++ (+++ = pIC50 ≥6.00)
CC(=O)N1CCC(c2c[nH]c3ccncc23)CC1 [Compound 174] | + (+ = pIC50 4.00-4.99) | + (+ = pIC50 4.00-4.99) | +− (+− = pIC50 <4.00) | +− (+− = pIC50 <4.00)
Cn1cnc(S(=O)(=O)N2CCC(c3c[nH]c4ccccc34)CC2)c1 [Compound 4] | + (+ = pIC50 4.00-4.99) | +− (+− = pIC50 <4.00) | +− (+− = pIC50 <4.00) | + (+ = pIC50 4.00-4.99)
COc1cccc2c(C3=CCN(C(C)=O)CC3)c[nH]c12 [Compound 88] | + (+ = pIC50 4.00-4.99) | +− (+− = pIC50 <4.00) | +− (+− = pIC50 <4.00) | ++ (++ = pIC50 5.00-5.99)
